Values of other authors, collected in patent publication US7049120B2, “Regulation of human mrp5-like protein” (Bayer HealthCare AG, priority 2001, dated 2006).

Legend:
MRP5 [1] = biological target: T1, MRP5 (Homo sapiens, UniProt O15440); design: host or cells: V79 hamster lung fibroblasts, stably expressing; settings: MRP5 stably expressed in V79 hamster lung fibroblasts; Jedlitschsky et al., 2000
MRP5 [2] = biological target: T1, MRP5; design: host or cells: polarized Madin-Darby canine kidney II (MDCK II) cells, transfected; settings: polarized MDCK II cells overexpressing human MRP5; Wijnholds et al., 2000
MRP5 [3] = biological target: T1, MRP5; design: host or cells: polarized Madin-Darby canine kidney II (MDCK II) cells, transfected; settings: MDCK II cells transfected with human MRP5; Wijnholds et al., 2000

T1 sequence (O15440 whole entry): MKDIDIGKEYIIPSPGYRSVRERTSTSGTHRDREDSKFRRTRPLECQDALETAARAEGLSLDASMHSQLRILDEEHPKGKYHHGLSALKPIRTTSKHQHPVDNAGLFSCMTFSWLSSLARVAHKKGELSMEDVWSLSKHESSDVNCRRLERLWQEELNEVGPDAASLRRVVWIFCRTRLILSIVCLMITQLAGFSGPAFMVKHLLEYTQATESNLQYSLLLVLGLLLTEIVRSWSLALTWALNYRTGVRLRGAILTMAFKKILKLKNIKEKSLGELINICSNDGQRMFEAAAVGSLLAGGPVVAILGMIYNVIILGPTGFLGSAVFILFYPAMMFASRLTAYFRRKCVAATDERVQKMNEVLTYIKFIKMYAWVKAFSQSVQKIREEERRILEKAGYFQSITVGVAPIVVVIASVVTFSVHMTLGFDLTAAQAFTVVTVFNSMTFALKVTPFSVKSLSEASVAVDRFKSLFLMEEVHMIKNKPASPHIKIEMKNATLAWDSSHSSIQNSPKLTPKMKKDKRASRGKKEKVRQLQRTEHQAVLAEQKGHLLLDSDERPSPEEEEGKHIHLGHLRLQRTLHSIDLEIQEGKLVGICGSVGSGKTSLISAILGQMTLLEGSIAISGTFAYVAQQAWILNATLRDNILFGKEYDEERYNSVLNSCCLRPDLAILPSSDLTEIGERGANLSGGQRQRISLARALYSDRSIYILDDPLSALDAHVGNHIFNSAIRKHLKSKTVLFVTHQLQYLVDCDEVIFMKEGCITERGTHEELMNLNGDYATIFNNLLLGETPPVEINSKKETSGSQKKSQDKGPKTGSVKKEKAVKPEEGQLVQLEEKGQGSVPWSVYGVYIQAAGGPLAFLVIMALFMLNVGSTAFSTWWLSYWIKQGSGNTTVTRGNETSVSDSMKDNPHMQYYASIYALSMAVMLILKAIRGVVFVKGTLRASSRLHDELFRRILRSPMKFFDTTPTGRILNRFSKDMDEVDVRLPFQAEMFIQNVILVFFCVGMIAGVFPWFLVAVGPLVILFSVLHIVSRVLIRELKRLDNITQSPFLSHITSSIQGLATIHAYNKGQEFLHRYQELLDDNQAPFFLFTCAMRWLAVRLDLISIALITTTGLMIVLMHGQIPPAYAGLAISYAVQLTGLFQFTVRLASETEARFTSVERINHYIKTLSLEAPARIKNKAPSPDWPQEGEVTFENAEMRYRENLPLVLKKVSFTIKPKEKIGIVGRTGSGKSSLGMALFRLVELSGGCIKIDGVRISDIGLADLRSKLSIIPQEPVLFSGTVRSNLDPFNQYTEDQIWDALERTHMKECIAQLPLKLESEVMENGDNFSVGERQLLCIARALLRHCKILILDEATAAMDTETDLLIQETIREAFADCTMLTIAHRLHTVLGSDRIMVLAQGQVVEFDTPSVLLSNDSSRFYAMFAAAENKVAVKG

Structure (SMILES) | inhibition of MRP5-mediated transport of cyclic nucleotides such as cGMP (MRP5 [1]) | resistance of MRP5-overexpressing cells to the drug (MRP5 [2]) | also measured
CCCOc1ccccc1-c1nc2nn[nH]c2c(=O)[nH]1 [Zaprinast] | inhibited |  | 
CCCc1nn(C)c2c(=O)[nH]c(-c3cc(S(=O)(=O)N4CCN(C)CC4)ccc3OCC)nc12 [Sildenafil] | inhibited |  | 
COc1cc2c(cc1OC)-c1c/c(=N\c3c(C)cc(C)cc3C)n(C)c(=O)n1CC2 [Trequinsin] | inhibited |  | 
Sc1ncnc2nc[nH]c12 [6-mercaptopurine] |  | resistant | 
Nc1nc2nc[nH]c2c(=S)[nH]1 [thioguanine] |  | resistant | 
Nc1ncnc2c1ncn2CCOCP(=O)(O)O [PMEA, 9-(2-phosphonylmethoxyethyl)-adenine] |  |  | transport of the drug by MRP5-transfected cells (MRP5 [3]): transport
